Columns and labels:
[1] = tested on: IL-6 induced pSTAT3 in rat retina/choroid; experiment: Pharmacodynamic assay: inhibition of IL6-induced pSTAT3 in rats; format: in vivo, Female Lewis rats; conditions: 3 day pre-treatment
Experimental: The ability of a single intravitreal administration of test compound to inhibit IL-6 induced pSTAT3 was measured in rat retina/choroid homogenates.
Suspension formulations were prepared by combining crystalline compound 1 of Example 1 with 0.5% hydroxypropyl methylcellulose (HPMC E5 LV), 0.02% Tween 80, and 0.9% sodium chloride in purified water to attain target concentrations of 3 mg/mL and 10 mg/mL.
Female Lewis rats were intravitreally (IVT) dosed (5 μL per eye) with the suspension formulations or with the drug vehicle. Three days later, IL-6 (Peprotech; 0.1 mg/mL; 5 μL per eye) or vehicle was intravitreally administered to induce pSTAT3. Ocular tissues were dissected one hour after the second IVT injection with IL-6. The retina/choroid tissues were homogenized and pSTAT3 levels were measured using an ELISA (Cell Signaling Technology). The percent inhibition of IL-6-induced pSTAT3 was calculated in comparison to the vehicle/vehicle and vehicle/IL-6 groups. Inhibition of greater than 100% reflects a reduction of pSTAT3 levels to below those observed in the vehicle/vehicle group.

[2] = tested on: IL-13 induced pSTAT6 in lung tissue; experiment: Murine model of IL-13 induced pSTAT6 induction in lung tissue; format: in vivo, balb/c mice; conditions: mouse lung, 0.5 mg/mL 50 μL oral aspiration
Experimental: Il-13 is an important cytokine underlying the pathophysiology of asthma (Kudlacz et al. Eur. J. Pharmacol, 2008, 582, 154-161). IL-13 binds to cell surface receptors activating members of the Janus family of kinases (JAK) which then phosphorylate STAT6 and subsequently activates further transcription pathways. In the described model, a dose of IL-13 was delivered locally into the lungs of mice to induce the phosphorylation of STAT6 (pSTAT6) which is then measured as the endpoint.
Adult balb/c mice from Harlan were used in the assay. On the day of study, animals were lightly anesthetized with isoflurane and administered either vehicle or test compound (0.5 mg/mL, 50 μL total volume over several breaths) via oral aspiration. Animals were placed in lateral recumbency post dose and monitored for full recovery from anesthesia before being returned to their home cage. Four hours later, animals were once again briefly anesthetized and challenged with either vehicle or IL-13 (0.03 μg total dose delivered, 50 μL total volume) via oral aspiration before being monitored for recovery from anesthesia and returned to their home cage. […] using an anti-pSTAT6 ELISA (rabbit mAb capture/coating antibody; mouse mAb detection/report antibody: anti-pSTAT6-pY641; secondary antibody: anti-mouse IgG-HRP) and analyzed for total drug concentration as described above in Assay 11. […]

[3] = tested on: IFNγ induced CXCL10 secretion; experiment: Inhibition of IFNγ induced CXCL10 in human 3D airway cultures; format: cell-based; conditions: at μM (so in the source), 8 days, ±STDV
Experimental: (§1) EpiAirway tissue cultures were obtained from Mattek (AIR-100). Cultures were derived from asthmatic donors. In a cell culture insert, human derived tracheal/bronchial epithelial cells were grown and differentiated on a porous membrane support, allowing an air-liquid interface with warmed culture medium below the cells and a gaseous test atmosphere above. Tissues were cultured in maintenance media (Mattek, AIR-100-MM) in a 37° C., 5% CO2 humidified incubator. Four donors were tested. On Day 0, tissue cultures were treated with test compounds at 10 μM, 1 μM and/or 0.1 μM. Compounds were diluted in dimethyl sulfoxide (DMSO, Sigma) to a final concentration of 0.1%. DMSO at 0.1% was used as a vehicle control. Test compounds were incubated with cultures for 1 hour at 37° C., 5% CO2, followed by the addition of pre-warmed media containing IFNγ (R&D Systems) or IL-27 (R&D Systems) at a final concentration at 100 ng/ml. Tissue cultures were maintained for 8 days. Media was replaced every 2 days with fresh media containing compounds and IFNγ or IL-27. On Day 8, tissue cultures and supernatants were collected for analysis. […] Data is expressed as % Inhibition+/−standard deviation (±STDV). Percent inhibition was determined by compound inhibitory potency against IFNγ or IL-27 induced CXCL10 or CXCL9 secretion compared to vehicle treated cells. […]

[4] = tested on: IL-27 induced CXCL10 secretion; experiment: Inhibition of IL-27 induced CXCL10 in human 3D airway cultures; format: cell-based; conditions: 192 h, at 0.1 μM (first of two values so printed), 8 days, ±STDV
Experimental: as §1

## CCc1cc(O)c(F)cc1-c1ccc2c(-c3nc4c([nH]3)CCN(C3CCN(C)CC3)C4)n[nH]c2c1 [compound 1, 5-ethyl-2-fluoro-4-(3-(5-(1-methylpiperidin-4-yl)-4,5,6,7-tetrahydro-1H-imidazo[4,5-c]pyridin-2-yl)-1H-indazol-6-yl)phenol]
[1]; 15 μg intravitreal suspension
  inhibition of IL-6-induced pSTAT3: 33%
[1]; 50 μg intravitreal suspension
  inhibition of IL-6-induced pSTAT3: 109%
[2]
  inhibition of STAT6 phosphorylation: about 60%
[3]
  inhibition of IFNγ induced CXCL10 secretion: 71%±19
[4]
  inhibition at 0.1 µM: 98%

Reference: patent US11786517B2, “Methods of treatment using a JAK inhibitor compound” (THERAVANCE BIOPHARMA R&D IP, LLC, priority 2017, dated 2023)
